Experimental data as given in patent US9434711B2 (Janssen Pharmaceutica, NV, priority 2007, dated 2016).

Target: canine TRPM8 (Canis lupus familiaris, UniProt Q1A7N1)
Assay: In Vitro Canine TRPM8 Functional Assay (Ca2+ fluorescence, icilin activation)
Assay type: cell-based
Details: for IC50: HEK293 cells stably expressing canine TRPM8, icilin activation, eight-point dose-response, read-out: IC50; for inhibition at 0.2 µM / % Inh @ 0.2 (μM): compound at 0.2 μM, canine TRPM8, icilin activation; for inhibition at 0.2 µM: read-out: % Inh @ 0.2
Method in brief: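 HEK293 cells stably expressing canine TRPM8 loaded with Calcium 3 dye; compound added and Ca2+ fluorescence monitored 5 min before icilin at a final level giving ~80% maximal response, read on FLIPR or FDSS. EC50 or IC50 from eight-point dose-response, quadruplicate wells per point.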

canine TRPM8, sequence (Q1A7N1 1-1104): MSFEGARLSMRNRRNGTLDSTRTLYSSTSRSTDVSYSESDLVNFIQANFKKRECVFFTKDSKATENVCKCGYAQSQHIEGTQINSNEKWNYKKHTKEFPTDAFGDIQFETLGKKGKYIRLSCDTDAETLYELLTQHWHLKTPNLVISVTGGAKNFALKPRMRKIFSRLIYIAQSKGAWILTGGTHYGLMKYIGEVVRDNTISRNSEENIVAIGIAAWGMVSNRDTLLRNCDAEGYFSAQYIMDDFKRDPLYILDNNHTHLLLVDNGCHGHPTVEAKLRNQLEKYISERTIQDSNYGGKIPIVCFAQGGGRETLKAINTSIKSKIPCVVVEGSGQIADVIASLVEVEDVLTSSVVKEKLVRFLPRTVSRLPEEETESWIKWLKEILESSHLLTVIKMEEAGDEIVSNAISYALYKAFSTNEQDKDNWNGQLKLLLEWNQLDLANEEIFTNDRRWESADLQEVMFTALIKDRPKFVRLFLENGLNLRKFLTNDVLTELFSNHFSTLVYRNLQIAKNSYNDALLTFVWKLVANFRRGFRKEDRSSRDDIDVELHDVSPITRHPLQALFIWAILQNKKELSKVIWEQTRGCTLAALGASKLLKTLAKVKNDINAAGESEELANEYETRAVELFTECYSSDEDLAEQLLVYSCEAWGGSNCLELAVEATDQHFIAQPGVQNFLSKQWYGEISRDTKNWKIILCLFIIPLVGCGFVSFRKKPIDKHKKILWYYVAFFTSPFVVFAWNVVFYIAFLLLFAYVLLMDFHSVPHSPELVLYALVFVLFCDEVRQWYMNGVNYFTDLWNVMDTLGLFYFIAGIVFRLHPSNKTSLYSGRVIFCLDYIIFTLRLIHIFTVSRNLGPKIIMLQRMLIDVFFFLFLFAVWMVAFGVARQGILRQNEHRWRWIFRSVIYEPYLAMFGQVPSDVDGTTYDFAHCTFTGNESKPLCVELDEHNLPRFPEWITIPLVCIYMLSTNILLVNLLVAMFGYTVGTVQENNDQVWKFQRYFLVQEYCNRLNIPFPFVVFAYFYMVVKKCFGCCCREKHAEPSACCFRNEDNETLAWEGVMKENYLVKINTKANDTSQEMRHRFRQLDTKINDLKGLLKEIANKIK

SMILES	IC50	inhibition at 0.2 µM	% Inh @ 0.2 (μM)
CCCCN(c1sc2ccccc2c1Br)S(=O)(=O)c1ccc(-c2nnn[nH]2)cc1 [Compound 428, N-(3-Bromo-benzo[b]thiophen-2-yl)-N-(butyl)-4-(1H-tetrazol-5-yl)-benzenesulfonamide]	10 nM	93%	
CCCCN(C1=Cc2ccccc2S1(=O)=O)S(=O)(=O)c1ccc(C(=O)OC)cc1 [Compound 430, N-(Butyl)-N-(1,1-dioxo-benzo[b]thiophen-2-yl)-4-carbomethoxy-benzenesulfonamide]		52%	
O=S1(=O)C(N(Cc2ccc(F)c(C(F)(F)F)c2)S(=O)(=O)c2ccccc2)=C(Br)c2ccccc21 [Compound 431, N-(3-Bromo-1,1-dioxo-benzo[b]thiophen-2-yl)-N-(4-fluoro-3-trifluoromethyl-benzyl)-benzenesulfonamide]	20 nM	88%	
CCCCN(C1=Cc2ccccc2S1(=O)=O)S(=O)(=O)c1ccc(C(=O)O)cc1 [Compound 432, N-(Butyl)-N-(1,1-dioxo-1H-benzo[b]thiophen-2-yl)-4-carboxy-benzenesulfonamide]		42%	
CCCCN(C1=C(Br)c2ccccc2S1(=O)=O)S(=O)(=O)c1ccc(C(=O)OC)cc1 [Compound 433, N-(3-Bromo-1,1-dioxo-benzo[b]thiophen-2-yl)-N-(butyl)-4-carbomethoxy-benzenesulfonamide]	33 nM	93%	
CCCCN(C1=C(OC)c2ccccc2S1(=O)=O)S(=O)(=O)c1ccc(C(=O)O)cc1 [Compound 434, N-(Butyl)-N-(3-methoxy-1,1-dioxo-1H-benzo[b]thiophen-2-yl)-4-carboxy-benzenesulfonamide]	17 nM	90%	
CCCCN(C1=C(Br)c2ccccc2S1(=O)=O)S(=O)(=O)c1ccc(C(=O)O)cc1 [Compound 435, N-(Butyl)-N-(3-bromo-1,1-dioxo-1H-benzo[b]thiophen-2-yl)-4-carboxy-benzenesulfonamide]	33 nM	95%	
CCCCN(C1=C(OC)c2ccccc2S1(=O)=O)S(=O)(=O)c1ccc(C(=O)OC)cc1 [Compound 436, N-(Butyl)-N-(3-methoxy-1,1-dioxo-1H-benzo[b]thiophen-2-yl)-4-carbomethoxy-benzenesulfonamide]	4 nM	89%	
O=C(O)c1ccc(S(=O)(=O)N(CC2CCC2)c2sc3ccccc3c2Br)cc1 [Compound 437, N-(3-Bromo-benzo[b]thiophen-2-yl)-N-(cyclobutylmethyl)-4-carboxy-benzenesulfonamide]	9 nM	92%	
O=C(O)c1ccc(S(=O)(=O)N(CC2CCCC2)c2sc3ccccc3c2Br)cc1 [Compound 438, N-(3-Bromo-benzo[b]thiophen-2-yl)-N-(cyclopentylmethyl)-4-carboxy-benzenesulfonamide]	2 nM	90%	
O=C(O)c1ccc(S(=O)(=O)N(C[C@@H]2C[C@@H]3CC[C@H]2C3)c2sc3ccccc3c2Br)cc1 [Compound 439, RS,RS—N-(Bicyclo[2.2.1]heptan-2-ylmethyl)-N-(3-bromobenzo[b]thiophen-2-yl)-4-carboxy-benzenesulfonamide]	2 nM		86%
O=C(O)c1ccc(S(=O)(=O)N(CC2CCOCC2)c2sc3ccccc3c2Br)cc1 [Compound 440, N-(3-Bromo-benzo[b]thiophen-2-yl)-N-((tetrahydro-2H-pyran-4-yl)methyl)-4-carboxy-benzenesulfonamide]	14 nM	84%	
CN(C)CCN(c1sc2ccccc2c1Br)S(=O)(=O)c1ccc(C(=O)O)cc1 [Compound 441, N-(3-Bromo-benzo[b]thiophen-2-yl)-N-(2-(dimethylamino)ethyl)-4-carboxy-benzenesulfonamide]		37%	
CCCCN(c1cc2ccccc2s1)S(=O)(=O)c1ccc(-c2noc(=O)[nH]2)cc1 [Compound 442, N-(Benzo[b]thiophen-2-yl)-N-(butyl)-4-(5-oxo-4,5-dihydro-[1,2,4]oxadiazol-3-yl)-benzenesulfonamide]	67 nM	81%	
CCCCN(c1sc2ccccc2c1Br)S(=O)(=O)c1ccc(-c2noc(=O)[nH]2)cc1 [Compound 443, N-(3-Bromo-benzo[b]thiophen-2-yl)-N-(butyl)-4-(5-oxo-4,5-dihydro-[1,2,4]oxadiazol-3-yl)-benzenesulfonamide]	14 nM	94%	
CCCCN(c1cc2ccccc2s1)S(=O)(=O)c1ccc(N(C)C)cc1 [Compound 444, N-(Benzo[b]thiophen-2-yl)-N-(butyl)-4-dimethylamino-benzenesulfonamide]	122 nM	92%	
CCCCN(c1cc2ccccc2s1)S(=O)(=O)c1ccc(N2CCCC2)cc1 [Compound 445, N-(Benzo[b]thiophen-2-yl)-N-(butyl)-4-pyrrolidin-1-yl-benzenesulfonamide]		58%	
CCCCN(c1cc2ccccc2s1)S(=O)(=O)c1ccc(N2CCOCC2)cc1 [Compound 446, N-Benzo[b]thiophen-2-yl-N-(butyl)-4-morpholin-4-yl-benzenesulfonamide]	96 nM	82%	
CN(C)C(=O)c1c(N(Cc2ccc(F)c(C(F)(F)F)c2)S(=O)(=O)c2ccccc2)sc2ccccc12 [Compound 457, N-(3-Dimethyl-carbamoyl-benzo[b]thiophen-2-yl)-N-(4-fluoro-3-trifluoromethyl-benzyl)-benzenesulfonamide]	47 nM		93%
CNC(=O)c1c(N(Cc2ccc(F)c(C(F)(F)F)c2)S(=O)(=O)c2ccccc2)sc2ccccc12 [Compound 458, N-(3-Methyl-carbamoyl-benzo[b]thiophen-2-yl)-N-(4-fluoro-3-trifluoromethyl-benzyl)-benzenesulfonamide]	12 nM		102%
CN(C)S(=O)(=O)c1cccc(S(=O)(=O)N(Cc2ccc(F)c(C(F)(F)F)c2)c2cc3ccccc3s2)c1 [Compound 462, N-(Benzo[b]thiophen-2-yl)-N-(4-fluoro-3-trifluoromethyl-benzyl)-3-N′,N′-dimethylsulfamoyl-benzenesulfonamide]			22%

The next lines start with results.

IC50	inhibition at 0.2 µM	SMILES	% Inh @ 0.2 (μM)
	19%	CCCCN(c1cc2ccccc2s1)S(=O)(=O)c1ccc(N2CCN(C)CC2)cc1 [Compound 447, N-(Benzo[b]thiophen-2-yl)-N-(butyl)-4-(4-methyl-piperazin-1-yl)-benzenesulfonamide]	
12 nM	102%	CCCCN(c1sc2ccccc2c1C)S(=O)(=O)c1cccnc1N(C)C [Compound 448, N-(3-Methyl-benzo[b]thiophen-2-yl)-N-(butyl)-2-dimethylamino-pyridin-3-yl-sulfonamide]	
88 nM	97%	CCCCN(c1cc2ccccc2s1)S(=O)(=O)c1ccc(-c2nnn[nH]2)cc1 [Compound 449, N-(Benzo[b]thiophen-2-yl)-N-(butyl)-4-(1H-tetrazol-5-yl)-benzenesulfonamide]	
29 nM	101%	CCCCN(c1sc2cc(F)ccc2c1C)S(=O)(=O)c1ccc(C(=O)O)cc1 [Compound 450, N-(6-Fluoro-3-methyl-benzo[b]thiophen-2-yl)-N-(butyl)-4-carboxy-benzenesulfonamide]	
68 nM	97%	O=C(O)c1ccc(S(=O)(=O)N(CCCC(F)(F)F)c2cc3ccccc3s2)cc1 [Compound 451, N-(Benzo[b]thiophen-2-yl)-N-(4,4,4-trifluoro-butyl)-4-carboxy-benzenesulfonamide]	
18 nM	101%	CC(C)CN(c1sc2ccccc2c1Br)S(=O)(=O)c1ccc(C(=O)O)cc1 [Compound 452, N-(3-Bromo-benzo[b]thiophen-2-yl)-N-(isobutyl)-4-carboxy-benzenesulfonamide]	
2 nM	101%	O=C(O)c1ccc(S(=O)(=O)N(CCOC2CCCCC2)c2sc3ccccc3c2Br)cc1 [Compound 453, N-(3-Bromo-benzo[b]thiophen-2-yl)-N-(2-(cyclohexyloxy)ethyl)-4-carboxy-benzenesulfonamide]	
4 nM	101%	COC(C)(C)CCN(c1sc2ccccc2c1Br)S(=O)(=O)c1ccc(C(=O)O)cc1 [Compound 454, N-(3-Bromo-benzo[b]thiophen-2-yl)-N-(3-methoxy-3-methylbutyl)-4-carboxy-benzenesulfonamide]	
36 nM	101%	Cc1c(N(Cc2ccc(F)c(C(F)(F)F)c2)S(=O)(=O)c2cccc(-c3nnn[nH]3)c2)sc2ccccc12 [Compound 455, N-(3-Methyl-benzo[b]thiophen-2-yl)-N-(4-fluoro-3-trifluoromethyl-benzyl)-3-(1H-tetrazol-5-yl)-benzenesulfonamide]	
	67%	O=C(O)c1ccc(S(=O)(=O)N(CCC(F)(F)F)c2cc3ccccc3s2)cc1 [Compound 456, N-(Benzo[b]thiophen-2-yl)-N-(3,3,3-trifluoro-propyl)-4-carboxy-benzenesulfonamide]	
9 nM	102%	NC(=O)c1c(N(Cc2ccc(F)c(C(F)(F)F)c2)S(=O)(=O)c2ccccc2)sc2ccccc12 [Compound 459, N-(3-Carbamoyl-benzo[b]thiophen-2-yl)-N-(4-fluoro-3-trifluoromethyl-benzyl)-benzenesulfonamide]	
8 nM	102%	CC(=O)C1=C(N(Cc2ccc(F)c(C(F)(F)F)c2)S(=O)(=O)c2ccccc2)S(=O)(=O)c2ccccc21 [Compound 460, N-(3-Acetyl-1,1-dioxo-1H-benzo[b]thiophen-2-yl)-N-(4-fluoro-3-trifluoromethyl-benzyl)-benzenesulfonamide]	
	30%	CN(C)S(=O)(=O)c1cccc(S(=O)(=O)N(CCC(F)(F)F)c2cc3ccccc3s2)c1 [Compound 461, N-(Benzo[b]thiophen-2-yl)-N-(3,3,3-trifluoro-propyl)-3-dimethylsulfamoyl-benzenesulfonamide]	
